In this assay the test system is nude mice, LX-1 lung xenograft intrarenal, tumor weight T/C. Nature of the assay: NCI In Vivo Anticancer Drug Screen. Data for tumor model Human Lung LX-1 Xenograft (intrarenal inoculation) in NU/NU Swiss (nude) mice. The conditions noted are these: endpoint: mean tumor weight change, higher = larger tumour. A digest of the protocol: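 Readout: T/C, i.e. treated-group tumor measurement over vehicle-control measurement. Mice bearing transplantable tumors were dosed with compound or vehicle.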
On the technique in general: In xenograft studies the graft and the host belong to different species.

The mark [1] stands for this setting: dose: 75.0 mg/kg/injection, schedule: Q04DX003 (sc), vehicle: saline with Tween-80.
Where [2] appears, read: dose: 150.0 mg/kg/injection, schedule: Q04DX003 (sc), vehicle: saline with Tween-80.
The mark [3] stands for this setting: dose: 300.0 mg/kg/injection, schedule: Q04DX003 (sc), vehicle: saline with Tween-80.
Where [4] appears, read: dose: 600.0 mg/kg/injection, schedule: Q04DX003 (sc), vehicle: saline with Tween-80.
The mark [5] stands for this setting: dose: 1200.0 mg/kg/injection, schedule: Q04DX003 (sc), vehicle: saline with Tween-80.
Setting [6] is: dose: 15.0 mg/kg/injection, schedule: Q04DX003 (sc), vehicle: saline.

The values below come from PubChem BioAssay AID264 (DTP/NCI, 2004).

Where “and” joins values, the source holds several entries; their conditions need not be identical. Equal entries are not always repeated. Inconclusive results are not listed.

As to `O=[n+]1c2ccccc2n([O-])c2ccccc21.[Cl][Ni][Cl]`, the T/C is, setting by setting: (dose: 18.75 mg/kg/injection, schedule: Q04DX003 (sc), vehicle: saline with Tween-80) 122 % of control; under setting [1], 150 % of control and 163 % of control; under setting [2], 226 % of control.

Turning to `CC1(C)OCC(CO)(Nc2nc(N3CC3)nc(N3CC3)n2)CO1`, the T/C (dose: 1.25 mg/kg/injection, schedule: Q01DX010 (sc), vehicle: saline) was 74 % of control.

Regarding `ClCCCN1CCN(CCCCl)CC1`, the T/C (dose: 150.0 mg/kg/injection, schedule: Q04DX003 (sc), vehicle: distilled water + alcohol) is 90 % of control.

Regarding `ClC1=C(Cl)C(Cl)=C(Cl)C1=Cc1ccccc1`, the T/C was 96 % of control (dose: 50.0 mg/kg/injection, schedule: Q04DX003 (sc), vehicle: saline with Tween-80); 91 % of control (dose: 200.0 mg/kg/injection, schedule: Q04DX003 (sc), vehicle: saline with Tween-80); 105 % of control (dose: 400.0 mg/kg/injection, schedule: Q04DX003 (sc), vehicle: saline with Tween-80).

Regarding `O=C1c2cccc3cc([N+](=O)[O-])cc(c23)C(=O)N1CCN1CCCC1`, the T/C runs as follows: (dose: 9.0 mg/kg/injection, schedule: Q04DX003 (sc), vehicle: saline with Tween-80) 104 % of control; (dose: 18.0 mg/kg/injection, schedule: Q04DX003 (sc), vehicle: saline with Tween-80) 75 % of control; (dose: 36.0 mg/kg/injection, schedule: Q04DX003 (sc), vehicle: saline with Tween-80) 74 % of control; (dose: 72.0 mg/kg/injection, schedule: Q04DX003 (sc), vehicle: saline with Tween-80) 76 % of control.

As to `c1ccc(CN2CCOC2)cc1`, the T/C is 81 % of control (dose: 50.0 mg/kg/injection, schedule: Q01DX010 (sc), vehicle: saline) and 165 % of control (dose: 100.0 mg/kg/injection, schedule: Q01DX010 (sc), vehicle: saline).

With `CCN1C=C/C(=C\C=C/c2cc[n+](CC)c3ccccc23)c2ccccc21`, the T/C (dose: 0.25 mg/kg/injection, schedule: Q01DX010 (sc), vehicle: saline) was 195 % of control.

In the case of `Oc1ccc(SCc2ccc(NCc3ccccc3)cc2)cc1`, the T/C was 97 % of control (dose: 25.0 mg/kg/injection, schedule: Q01DX010 (sc), vehicle: saline with Tween-80); 44 % of control (dose: 50.0 mg/kg/injection, schedule: Q01DX010 (sc), vehicle: saline with Tween-80); 53 % of control (dose: 100.0 mg/kg/injection, schedule: Q01DX010 (sc), vehicle: saline with Tween-80); 190 % of control (dose: 400.0 mg/kg/injection, schedule: Q01DX010 (sc), vehicle: saline with Tween-80); 54 % of control (dose: 800.0 mg/kg/injection, schedule: Q01DX010 (sc), vehicle: saline with Tween-80).

`CC[N](CC)[Ge]([CH2]C)[CH2]C.CC[N](CC)[Ge]([CH2]C)[CH2]C`: the T/C reads like this: (dose: 12.5 mg/kg/injection, schedule: Q01DX010 (sc), vehicle: suspension in saline) 67 % of control; (dose: 25.0 mg/kg/injection, schedule: Q01DX010 (sc), vehicle: suspension in saline) 89 % of control; (dose: 50.0 mg/kg/injection, schedule: Q01DX010 (sc), vehicle: suspension in saline) 77 % of control.

With `CCC1(O)CC2CN(CCc3c([nH]c4ccccc34)C(C(=O)OC)(c3cc4c(cc3OC)N(C)C3C(O)(C(N)=O)C(O)C5(CC)C=CCN6CCC43C65)C2)C1` (configuration not stated) (tested in a mixture with another compound), the T/C (dose: 1.5 mg/kg/injection, schedule: Q04DX003 (sc), vehicle: water) is 28 % of control.

As for `C[Si](C)(C)n1nnn(-c2ccccc2)c1=O`, the T/C is, setting by setting: under setting [1], 94 % of control; under setting [2], 105 % of control; under setting [3], 107 % of control.

`CS(=O)(=O)CS(=O)(=O)OCCCl`: the T/C (dose: 150.0 mg/kg/injection, schedule: Q04DX003 (sc), vehicle: suspension in saline) was 94 % of control.

As to `COc1ccc(/C=C/C(=O)c2cc(C(=O)O)c(OC)cc2OC)cc1OC`, the T/C (dose: 300.0 mg/kg/injection, schedule: Q04DX003 (sc), vehicle: suspension in saline) was 100 % of control; the T/C (dose: 600.0 mg/kg/injection, schedule: Q04DX003 (sc), vehicle: suspension in saline) is 56 % of control; the T/C (dose: 1200.0 mg/kg/injection, schedule: Q04DX003 (sc), vehicle: suspension in saline) was 73 % of control; the T/C (dose: 2400.0 mg/kg/injection, schedule: Q04DX003 (sc), vehicle: suspension in saline) was 66 % of control.

In the case of `CN=S(=O)(OCCCCCOS(=O)(=NC)c1ccc(C)cc1)c1ccc(C)cc1` (configuration not stated), the T/C runs as follows: (dose: 37.5 mg/kg/injection, schedule: Q04DX003 (sc), vehicle: saline with Tween-80) 72 % of control; under setting [1], 83 % of control; under setting [2], 88 % of control; under setting [3], 30 % of control.

For `C=C1C(C)C2C(Cc3ccccc3)NC(=O)C23C(OC(C)=O)C=CC(C)(O)C(=O)C(C)C/C=C/C3C1O` (configuration not stated), the T/C was 54 % of control (dose: 7.5 mg/kg/injection, schedule: Q04DX003 (sc), vehicle: Klucel (hydroxypropylcellulose) (HPC)) and 75 % of control (dose: 15.0 mg/kg/injection, schedule: Q04DX003 (sc), vehicle: Klucel (hydroxypropylcellulose) (HPC)).

In the case of `C[C@@]1(CO)[C@H](O)CC[C@@]2(C)[C@H]1CC[C@H]1C[C@@H]3C[C@@]12CC[C@@]3(O)COC(=O)CN`, the T/C is, setting by setting: (dose: 133.0 mg/kg/injection, schedule: Q01DX010 (sc), vehicle: saline + alcohol) 101 % of control; (dose: 200.0 mg/kg/injection, schedule: Q01DX010 (sc), vehicle: saline + alcohol) 106 % of control; (dose: 62.5 micrograms/kg/injection, schedule: Q01DX010 (sc), vehicle: saline + alcohol) 102 % of control; (dose: 500.0 micrograms/kg/injection, schedule: Q01DX010 (sc), vehicle: saline + alcohol) 115 % of control.

On to `CO[C@H]1Nc2c(ccc(C)c2O)C(=O)N2C=C(/C=C/C(N)=O)C[C@@H]12`, for which the T/C was 48 % of control (dose: 0.25 mg/kg/injection, schedule: Q04DX003 (sc), vehicle: saline + alcohol); 75 % of control (dose: 0.5 mg/kg/injection, schedule: Q04DX003 (sc), vehicle: saline + alcohol); 115 % of control (dose: 1.0 mg/kg/injection, schedule: Q04DX003 (sc), vehicle: saline + alcohol); 39 % of control (dose: 2.0 mg/kg/injection, schedule: Q04DX003 (sc), vehicle: saline + alcohol).

`O=C(Nc1nncs1)c1cccs1`: the T/C is, setting by setting: under setting [3], 119 % of control; under setting [4], 85 % of control; under setting [5], 120 % of control.

For the molecule `Nc1ncnc2c1ncn2C1C=C(CO)C(O)C1O` (configuration not stated), the T/C is, setting by setting: (dose: 3.75 mg/kg/injection, schedule: Q04DX003 (sc), vehicle: saline) 49 % of control; (dose: 7.5 mg/kg/injection, schedule: Q04DX003 (sc), vehicle: saline) 70 % of control; under setting [6], 58 % of control.

As for `O=Cc1c(O)c2ccccc2[nH]c1=O`, the T/C reads like this: under setting [2], 84 % of control; under setting [3], 99 % of control; under setting [4], 90 % of control; under setting [5], 50 % of control.

Turning to `CC[n+]1c(-c2ccccc2)c2cc(N)ccc2c2ccc(N)cc21`, the T/C by setting is: under setting [6], 80 % of control; (dose: 30.0 mg/kg/injection, schedule: Q04DX003 (sc), vehicle: saline) 81 % of control; (dose: 60.0 mg/kg/injection, schedule: Q04DX003 (sc), vehicle: saline) 33 % of control.

For `C1CCC2OCCOCCOC3CCCCC3OCCOCCOC2C1` (configuration not stated), the T/C (dose: 9.38 mg/kg/injection, schedule: Q04DX003 (sc), vehicle: Klucel (hydroxypropylcellulose) (HPC)) was 170 % of control and the T/C (dose: 18.75 mg/kg/injection, schedule: Q04DX003 (sc), vehicle: Klucel (hydroxypropylcellulose) (HPC)) is 159 % of control.

With `O=C1NC2(CCCCC2)C(=O)N1CCN(CCCl)CCCl`, the T/C was 524 % of control (dose: 4.0 mg/kg/injection, schedule: Q01DX010 (sc), vehicle: suspension in saline); 85 % of control (dose: 6.0 mg/kg/injection, schedule: Q01DX010 (sc), vehicle: saline); 39 % of control and 58 % of control (dose: 6.0 mg/kg/injection, schedule: Q01DX010 (sc), vehicle: suspension in saline); 244 % of control (dose: 8.0 mg/kg/injection, schedule: Q01DX010 (sc), vehicle: suspension in saline); 31 % of control (dose: 12.0 mg/kg/injection, schedule: Q01DX010 (sc), vehicle: saline); 115 % of control (dose: 16.0 mg/kg/injection, schedule: Q01DX010 (sc), vehicle: suspension in saline). The T/C (dose: 32.0 mg/kg/injection, schedule: Q01DX010 (sc), vehicle: suspension in saline) was 63 % of control.

As to `CCCCCCCCCCCCCCCCCC(=O)Nc1ccn(C2OC(CO)C(O)C2O)c(=O)n1` (configuration not stated), the T/C by setting is: under setting [1], 115 % of control; under setting [2], 41 % of control; under setting [3], 38 % of control; under setting [4], 30 % of control.
